Data published in paper PMC11877520, “Anthelmintic Potential of Conjugated Long-Chain Fatty Acids Isolated from the Bioluminescent Mushroom Neonothopanus gardneri” (Journal of Natural Products, 2025).
“Also recorded” adds a separate entry of the source. Like-named read-outs stand apart in the source and are kept apart here.

Assays:
Caenorhabditis elegans = assay: Toxicity assay with C. elegans (viability by mobility and form); type: in vivo, Caenorhabditis elegans (strain N2); details: L4-stage worms, 24 h, 25 to 200 μM
Procedure: (§1) The S. mansoni (BH strain) life cycle was sustained by passage through Biomphalaria glabrata snails and Swiss mice at the Research Center on Neglected Diseases (Guarulhos University, SP, Brazil). Vero cells from the American Type Culture Collection (ATCC) were cultured in Dulbecco’s modified Eagle medium (DMEM) supplemented with 10% heat-inactivated fetal calf serum and 2 mM L-glutamine (Vitrocell, Campinas, SP, Brazil). C. elegans (strain N2) was maintained at 22 °C on nematode growth medium (NGM) agar seeded with Escherichia coli strain OP50, following standard protocols.[26]
Toxicity assays with C. elegans were performed as previously described.[29] For 24 h, 26 L4-stage worms were exposed to samples at concentrations ranging from 25 to 200 μM, including levamisole (LVZ) at 10 μM as the positive control. Viability was assessed based on mobility and form using an inverted microscope, with experiments repeated three times.

Schistosoma mansoni = assay: In vitro antischistosomal assay on adult schistosomes (parasite viability by microscope); type: cell-based, Schistosoma mansoni (BH strain); details: for EC50: Schistosoma mansoni
Procedure: The in vitro antischistosomal potential of compounds 1–5 was evaluated at various concentrations on S. mansoni (male and female) to determine their effective concentrations at 50% (EC50). Praziquantel (PZQ) was employed as a positive control, while vehicle-treated parasites (0.5% DMSO) were a negative control. […] The S. mansoni (BH strain) life cycle was sustained by passage through Biomphalaria glabrata snails and Swiss mice at the Research Center on Neglected Diseases (Guarulhos University, SP, Brazil). Vero cells from the American Type Culture Collection (ATCC) were cultured in Dulbecco’s modified Eagle medium (DMEM) supplemented with 10% heat-inactivated fetal calf serum and 2 mM L-glutamine (Vitrocell, Campinas, SP, Brazil). C. elegans (strain N2) was maintained at 22 °C on nematode growth medium (NGM) agar seeded with Escherichia coli strain OP50, following standard protocols.[26] The in vitro antischistosomal assay followed established procedures.[27] Adult schistosomes from infected mice were exposed to test samples (0.78–50 μM) in RPMI 1640 medium supplemented with 5% heat-inactivated fetal calf serum, penicillin (100 U/mL), and streptomycin (100 μg/mL) in a 24-well culture plate. Test samples, including PZQ, were dissolved in DMSO and tested in triplicate with experiments repeated three times. A BEL Engineering microscope assessed parasite viability at 24, 48, and 72 h. Statistical analysis was conducted using GraphPad Prism 8.0. CE50 and CC50 values were determined from sigmoid dose–response curves. Selectivity indices were calculated by dividing CC50 values obtained on Vero cells by […].[30]

Vero cells = assay: Cytotoxicity on Vero cells (MTT); type: cell-based; details: for SI (male worms), selectivity index SI = CC50/EC50: Vero CC50 / S. mansoni male EC50
Procedure: as §1
(§2) Cytotoxicity was assessed using a previously established method.[20],[28] Cells were plated in 96-well plates and treated with test compounds (6.25–200 μM) and doxorubicin (DXR) at 10 μM as a positive control for 72 h. Cell viability was determined using an MTT solution, and absorbance was measured at 595 nm using a microplate spectrophotometer. The assay was performed in triplicate, and the results are expressed as a percentage of the control.
(§3) Statistical analysis was conducted using GraphPad Prism 8.0. CE50 and CC50 values were determined from sigmoid dose–response curves. Selectivity indices were calculated by dividing CC50 values obtained on Vero cells by CC50 values determined on S. mansoni.[30]

[1] = Cytotoxicity on Vero cells (MTT); type: cell-based; details: chlorocebus sabaeus; Vero cells, 72 h, MTT, 6.25–200 μM tested; read-out: Vero cell CC50
Procedure: as §1, §2, §3

[2] = adult female worms, in vitro, 72 h, 0.78–50 μM tested, read-out: S. mansoni female EC50
[3] = adult male worms, in vitro, 72 h, 0.78–50 μM tested, read-out: S. mansoni male EC50
[4] = adult schistosomes, ex vivo / in vitro, read-out: EC50 against S. mansoni (sex not specified)

SMILES | EC50 (Schistosoma mansoni; [2]) [µM] | EC50 (Schistosoma mansoni; [3]) [µM] | EC50 (Schistosoma mansoni; [4]) [µM] | Toxicity to C. elegans (in words) (Caenorhabditis elegans) | SI (female worms), selectivity index SI = CC50/EC50 (Vero cells; Vero CC50 / S. mansoni female EC50) | SI (male worms), selectivity index SI = CC50/EC50 (Vero cells) | Toxicity to mammalian cells (in words) (Vero cells; Vero cells, 72 h) | CC50 at 72 h [1] [µM] | Antiparasitic activity against S. mansoni (in words) (Schistosoma mansoni; adult schistosomes, in vitro, up to 50 μM)
CCCCCCCC/C=C\[C@@H](O)[C@H](O)CCCCCC(=O)O (stereo in doubt) [Compound 3, (7R,8R,9Z)-7,8-dihydroxyoctadec-9-enoic acid] | 32.6 ± 5.1 | 8.3 ± 2.4 | < 10 | did not show toxicity; also recorded: no toxicity | >6.13 | >24.09 | no toxicity | > 200 | 
CCCCC[C@H](O)[C@@H](O)/C=C/C=C/C(=O)CCCCCC(=O)O [Compound 1, (8E,10E,12S,13S)-12,13-dihydroxy-7-oxo-octadeca-8,10-dienoic acid] | > 50 | > 50 | > 50 |  |  |  |  |  | 
CCCCCC(=O)/C=C/C=C/[C@H](O)[C@@H](O)CCCCCC(=O)O [Compound 2, (7S,8S,9E,11E)-7,8-dihydroxy-13-oxo-octadeca-9,11-dienoic acid] | > 50 | > 50 | > 50 |  |  |  |  |  | 
O=C(O)/C=C/CCCCCCC(=O)O [Compound 4, (2E)-dec-2-ene-1,10-dioic acid] | > 50 | > 50 | > 50 |  |  |  |  |  | 

Now from value to molecule, other results behind:

EC50 (Schistosoma mansoni; [2]) [µM] | EC50 (Schistosoma mansoni; [3]) [µM] | EC50 (Schistosoma mansoni; [4]) [µM] | SMILES | Toxicity to C. elegans (in words) (Caenorhabditis elegans) | SI (female worms), selectivity index SI = CC50/EC50 (Vero cells; Vero CC50 / S. mansoni female EC50) | SI (male worms), selectivity index SI = CC50/EC50 (Vero cells) | Toxicity to mammalian cells (in words) (Vero cells; Vero cells, 72 h) | CC50 at 72 h [1] [µM] | Antiparasitic activity against S. mansoni (in words) (Schistosoma mansoni; adult schistosomes, in vitro, up to 50 μM)
> 50 | > 50 | > 50 | CC1(C)CCC(=O)[C@@]23C(=O)OC4OCC(=CC[C@@H]12)[C@H]43 (some centres unmarked) [Compound 5, marasmeno-1,15-dione] |  |  |  |  |  | no antiparasitic activity was detected
1.2 ± 0.1 | 0.9 ± 0.1 | < 2 | O=C(C1CCCCC1)N1CC(=O)N2CCc3ccccc3C2C1 (centres unmarked) [PZQ, Praziquantel, reference compound] |  |  | >250 |  | > 200 | 
